# From patent US4330532A, “Angiotensin-II analogues with antagonizing effects, containing an α-hydroxycarboxylic acid residue in position 8, and a process for the preparation thereof” (Richter Gedeon Vegyeszeti Gyar Rt., priority 1980, dated 1982)
# Tested on: hypertension provoked by angiotensin-II (Hypertensin (CIBA) infusion)
# Test: Antagonistic (hypotensive) effect on Hypertensin-infused narcotized male cats
# Type: in vivo, cat
# Description: The antagonistic effects of the new compounds of the formula (I) were investigated on narcotized male cats. After treating the animals with a ganglion blocking agent and bisecting the cervical vagus nerves on both sides, the animals were treated with an infusion of Hypertensin (CIBA) at a rate of 0.5 μg/kg/min. When the blood pressure of the animals reached a steady, increased level, the substance to be tested was administered either intravenously or subcutaneously in physiological saline solution or as an aqueous solution which also contained a carrier. The blood pressure drop was measured in mm Hg units, and the extent of decrease was expressed in percents related to the value before treatment. The statistical evaluation was performed on the basis of the blood pressure differences, by Student's single sample "t" test. The term "duration of effect" denotes the period elapsed until the observation of the last still significant (p±5%) blood pressure difference.
# [1] = s.c., carboxymethyl cellulose (CMC) carrier, dose 100 μg/kg
# [2] = s.c., carboxymethyl cellulose (CMC) carrier, dose 200 μg/kg
# [3] = s.c., gelatine carrier, dose 200 μg/kg
# [4] = s.c., physiological saline, dose 100 μg/kg
# [5] = s.c., physiological saline, dose 200 μg/kg
smiles,measurement,setting,value
"CNCC(=O)N[C@@H](CCCN=C(N)N)C(=O)N[C@H](C(=O)N[C@@H](Cc1ccc(O)cc1)C(=O)N[C@H](C(=O)N[C@@H](Cc1cnc[nH]1)C(=O)N1CCC[C@H]1C(=O)N[C@@H](C)C(=O)O)C(C)C)C(C)C [Saralasin, (Sar^1, Ala^8)-angiotensin-II]","blood pressure drop, extent of decrease in percents related to the value before treatment","i.v., dose 10 μg/kg",32%
same,duration of effect,"i.v., dose 10 μg/kg",15 min
same,"blood pressure drop, extent of decrease in percents related to the value before treatment",[1],23%
same,duration of effect,[1],45 min
same,"blood pressure drop, extent of decrease in percents related to the value before treatment",[2],28%
same,duration of effect,[2],90 min
same,"blood pressure drop, extent of decrease in percents related to the value before treatment",[3],23%
same,duration of effect,[3],.phi.
same,"blood pressure drop, extent of decrease in percents related to the value before treatment",[4],29%
same,duration of effect,[4],60 min
same,"blood pressure drop, extent of decrease in percents related to the value before treatment",[5],24%
same,duration of effect,[5],45 min
